Source: patent publication US10086001B2, “Composition for the treatment of cystic fibrosis” (SciPharm SàRL, priority 2009, dated 2018)
pEC50: −log10 of the molar value.

Columns and labels:
[1] = tested on: IB3-1 cells; test: Accumulation of [3H]cAMP in IB3-1 cells; assay type: cell-based, human; conditions: for accumulation of cAMP: bronchoepithelial IB3-1 cells
Experimental: IB3-1 cells were plated on 6 well-plates (0.2*10^6 cells/well) in complete growth medium (LHC-8+5% FCS). The following day, the adenine nucleotide pool was metabolically labelled by incubation with [3H]adenine (1 μCi/well) in Dulbecco's Modified Eagle Medium (DMEM) containing adenosine deaminase (1 unit/ml) for 4 h. Cyclc AMP formation was stimulated by 20 μM forskolin or the PGI2-analogue treprostinil (Remodulin®). The assay was performed in triplicates. The formation of [^3H]cAMP was determined by sequential chromatography on Dowex 50WX-4 and neutral alumina columns followed by liquid scintillation counting of the eluate.

[2] = tested on: human GFP-tagged wild type CFTR; test: Whole cell patch clamp, activation of Cl-current in IB3-1 cells transiently expressing GFP-tagged wild type CFTR; assay type: cell-based
Experimental: The whole cell patch clamp technique was used for current recordings performed at 22±1.5° C. using an Axoclamp 200B patch clamp amplifier (Axon Instruments). Pipettes had resistances between 1 and 2 MΩ when filled with the recording pipette solution (composition: 110 mM CsCl, 5 mM EGTA, 2 mM MgCl2, 1 mM K2.ATP, 10 mM Hepes, pH adjusted to 7.2 with CsOH). Voltage-clamp protocols and data acquisition were performed with pclamp 6.0 software (Axon Instruments). Data were low-pass filtered at 2 kHz (−3 dB) and digitized at 10-20 kHz. Cells were continuously superfused with external solution (composition: 145 mM NaCl, 4.5 mM KCl, 2 mM CaCl2, 1 mM MgCl2, 5 mM glucose, 10 mM Hepes, pH adjusted to 7.4 with NaOH). When indicated, the external solution contained Treprostinil (10 μM) or forskolin (5 μM), switching between solutions was achieved by electronically controlled pressure valves.
I3B-1 cells were grown on dishes (Nunc, 3.5 cm diameter) covered with fibronectin (10 μg/mL) rat collagen 1 (30 μg/mL) and BSA 10 μg/mL) in LHC-8 medium (Gibco) containing 5% fetal calf serum (FCS). Cells were transiently transfected with a plasmid driving the expression of human GFP-tagged wild type CFTR by using Lipofectamine Plus® (Invitrogen) according to the instructions of the manufacturer.
Representative current amplitudes recorded in the whole cell patch clamp configuration at +60 mV. A transiently transfected I3B-1 cell expressing GFP-tagged wild type CFTR was selected under fluorescent light and clamped to a holding potential at −40 mV. Depolarization was induced by a voltage step to +60 mV for 50 ms and the current amplitude was recorded. Wash-in of Treprostinil (10 μM final concentration, TP) was initiated at the time point 50 s and terminated at 125 s. Forskolin was washed in at 275 s and was removed at 375 s.

pEC50 ([1]; Homo sapiens, IB3-1 cells, [3H]adenine labelling, FIG. 1, read-out: Half-maximum stimulation of cAMP accumulation) | Structure (SMILES) | accumulation of cAMP [1] | activation of the current induced by a depolarization from −40 mV holding potential to +60 mV ([2]; 10 μM Treprostinil, IB3-1 cell expressing CFTR-wt, FIG. 2) | time for current to decay to basal after washout ([2]; 10 μM Treprostinil, whole cell patch clamp at +60 mV) | delay of response (maximum effect after wash-in, hysteresis in turn-off) ([2]; Treprostinil 10 μM or forskolin 5 μM, whole cell patch clamp)
 | O=C1CN2Cc3c(ccc(Cl)c3Cl)N=C2N1 [Anagrelide] | did not induce any accumulation cAMP |  |  | 
6.00 to 6.52 | CCCCC[C@H](O)CC[C@@H]1[C@H]2Cc3cccc(OCC(=O)[O-])c3C[C@H]2C[C@H]1O.[Na+] [Treprostinil, (1R,2R,3aS,9aS)-[[2,3,3a,4,9,9a-hexahydro-2-hydroxy-1-[(3S)-3-hydroxyoctyl]-1H-benz[f]inden-5-yl]oxy]acetic acid monosodium salt] | concentration-dependent accumulation of cAMP | robust activation of the current | ~100 s | only observed several s after wash-in
